Assay results taken from ChEMBL document CHEMBL3046774, “Synthesis and insect antifeedant activity of precocene derivatives with lactone moiety” (2005).
Active and inactive are the calls of the source. The rule behind the calls is not given here.

Experiments:
Aphididae = assay: Antifeeding activity against Aphididae (aphids) in compound treated chinese cabbage leaves assessed as settled aphids measured up to 24 hr; assay type: functional, organism-based
[1] = system: Leptinotarsa decemlineata; assay: Antifeeding activity against Leptinotarsa decemlineata adults in compound treated wheat wafer disk assessed as total coefficient of deterrence by feeding deterrent activity test; assay type: functional
[2] = system: Leptinotarsa decemlineata; assay: Antifeeding activity against Leptinotarsa decemlineata adults in compound treated wheat wafer disk assessed as relative coefficient of deterrence by feeding deterrent activity test; assay type: functional
Sitophilus granarius [3] = assay: Antifeeding activity against Sitophilus granarius (granary weevil) adults in compound treated wheat wafer disk assessed as absolute coefficient of deterrence by feeding deterrent activity test; assay type: functional
[4] = system: Leptinotarsa decemlineata; assay: Antifeeding activity against Leptinotarsa decemlineata larvaes in compound treated wheat wafer disk assessed as total coefficient of deterrence by feeding deterrent activity test; assay type: functional
[5] = system: Leptinotarsa decemlineata; assay: Antifeeding activity against Leptinotarsa decemlineata larvaes in compound treated wheat wafer disk assessed as absolute coefficient of deterrence by feeding deterrent activity test; assay type: functional
[6] = system: Leptinotarsa decemlineata; assay: Antifeeding activity against Leptinotarsa decemlineata larvaes in compound treated wheat wafer disk assessed as relative coefficient of deterrence by feeding deterrent activity test; assay type: functional
Sitophilus granarius [7] = assay: Antifeeding activity against Sitophilus granarius (granary weevil) adults in compound treated wheat wafer disk assessed as relative coefficient of deterrence by feeding deterrent activity test; assay type: functional
Sitophilus granarius [8] = assay: Antifeeding activity against Sitophilus granarius (granary weevil) adults in compound treated wheat wafer disk assessed as total coefficient of deterrence by feeding deterrent activity test; assay type: functional
Trogoderma granarium [9] = assay: Antifeeding activity against Trogoderma granarium (khapra beetle) larvaes in compound treated wheat wafer disk assessed as total coefficient of deterrence by feeding deterrent activity test; assay type: functional
Trogoderma granarium [10] = assay: Antifeeding activity against Trogoderma granarium (khapra beetle) larvaes in compound treated wheat wafer disk assessed as relative coefficient of deterrence by feeding deterrent activity test; assay type: functional
Trogoderma granarium [11] = assay: Antifeeding activity against Trogoderma granarium (khapra beetle ) larvaes in compound treated wheat wafer disk assessed as absolute coefficient of deterrence by feeding deterrent activity test; assay type: functional
Tribolium confusum [12] = assay: Antifeeding activity against Tribolium confusum (confused flour beetle) adults in compound treated wheat wafer disk assessed as total coefficient of deterrence by feeding deterrent activity test; assay type: functional
Tribolium confusum [13] = assay: Antifeeding activity against Tribolium confusum (confused flour beetle) adults in compound treated wheat wafer disk assessed as relative coefficient of deterrence by feeding deterrent activity test; assay type: functional
Tribolium confusum [14] = assay: Antifeeding activity against Tribolium confusum (confused flour beetle) larvaes in compound treated wheat wafer disk assessed as total coefficient of deterrence by feeding deterrent activity test; assay type: functional
Tribolium confusum [15] = assay: Antifeeding activity against Tribolium confusum (confused flour beetle) adults in compound treated wheat wafer disk assessed as absolute coefficient of deterrence by feeding deterrent activity test; assay type: functional
Tribolium confusum [16] = assay: Antifeeding activity against Tribolium confusum (confused flour beetle) larvaes in compound treated wheat wafer disk assessed as relative coefficient of deterrence by feeding deterrent activity test; assay type: functional
Tribolium confusum [17] = assay: Antifeeding activity against Tribolium confusum (confused flour beetle) larvaes in compound treated wheat wafer disk assessed as absolute coefficient of deterrence by feeding deterrent activity test; assay type: functional
[18] = system: Leptinotarsa decemlineata; assay: Antifeeding activity against Leptinotarsa decemlineata adults in compound treated wheat wafer disk assessed as absolute coefficient of deterrence by feeding deterrent activity test; assay type: functional

| Structure (SMILES) | Activity (Aphididae) | FDI [1] | FDI [2] | FDI (Sitophilus granarius [3]) | FDI [4] | FDI [5] | FDI [6] | FDI (Sitophilus granarius [7]) | FDI (Sitophilus granarius [8]) | FDI (Trogoderma granarium [9]) | FDI (Trogoderma granarium [10]) | FDI (Trogoderma granarium [11]) | FDI (Tribolium confusum [12]) | FDI (Tribolium confusum [13]) | FDI (Tribolium confusum [14]) | FDI (Tribolium confusum [15]) | FDI (Tribolium confusum [16]) | FDI (Tribolium confusum [17]) | FDI [18] |
| --- | --- | --- | --- | --- | --- | --- | --- | --- | --- | --- | --- | --- | --- | --- | --- | --- | --- | --- | --- |
| COc1cc2c(cc1OC)OC(C)(C)C=C2 [PROCOCENE II] | Active | 116 | 71.8 | 100 | 124.1 | 32.9 | 91.2 | 94.2 | 194.2 | 198.6 | 100 | 98.6 | 194.2 | 94.2 | 165.7 | 100 | 97.1 | 68.6 | 44.2 |
| COc1cc2c(cc1OC)C1=C(CC(=O)O1)C(C)(C)O2 | inactive | 49.6 | 29.9 | 14.2 | 95.2 | 32.7 | 62.5 | 91.6 | 105.8 | 116.2 | 85 | 31.2 | 105.8 | 91.6 | 149.7 | 14.2 | 90.7 | 59 | 19.7 |
| COc1ccc2c(c1)OC(C)(C)C=C2 [PROCOCENE I] | Active | 115.7 | 73.8 | 55.2 | 164.6 | 77.8 | 86.8 | 83.8 | 139 | 80.1 | 38.3 | 41.8 | 139 | 83.8 | 119.2 | 55.2 | 64.1 | 55.1 | 41.9 |
| COc1ccc2c(c1)OC(C)(C)C1=C2OC(=O)C1 | Active | 76.8 | 49.2 | 19.7 | 76.7 | 21.7 | 55 | 94.4 | 114.1 | 107.6 | 73.1 | 34.5 | 114.1 | 94.4 | 50.6 | 19.7 | 60.3 | -6.7 | 27.6 |
| COc1ccc2c(c1)OC(C)(C)C(CC(=O)O)=C2 | inactive | 94.1 | 70.9 | 1.8 | 98.8 | 35.2 | 63.6 | 95.7 | 97.5 | 108 | 86 | 22 | 97.5 | 95.7 | 80.2 | 1.8 | 86.4 | -6.2 | 23.2 |
| COc1cc2c(cc1OC)[C@@H]1OC(=O)C[C@]1(I)C(C)(C)O2 (racemic) | inactive | 176.2 | 89.1 | 3.9 | 132 | 41.4 | 90.6 | 89.5 | 93.4 | 120.1 | 80.5 | 39.6 | 93.4 | 89.5 | 147.8 | 3.9 | 93.6 | 54.2 | 87.1 |
| COc1cc2c(cc1OC)OC(C)(C)C(CC(=O)O)=C2 | inactive | 98.1 | 63.7 | 15 | 96.3 | 17.2 | 79.1 | 88.9 | 103.9 | 97.4 | 85.5 | 11.9 | 103.9 | 88.9 | 113.6 | 15 | 73.1 | 40.5 | 34.4 |
| COc1ccc2c(c1)OC(C)(C)[C@@]1(I)CC(=O)O[C@@H]21 (racemic) | inactive | 143 | 81.4 | 21.1 | 134.1 | 38.3 | 95.8 | 93.4 | 114.5 | 111.4 | 79.8 | 31.6 | 114.5 | 93.4 | 94.2 | 21.1 | 77.5 | 16.7 | 61.6 |
